# Test results from patent publication US20250027127A1, “C[…] BACTERIA” (priority 2021, published 2025).
# Experiments:
# Tcz9 = test: In vitro assays with Tcz9 wild type and variants; type: biochemical, Actinomycete sp. AJS-327; settings: 12 hours, 37° C., pH 7.5
# Procedure: (§1) The in vitro assays were performed following a modified procedure that was previously reported.^1 Assays (0.1 mL) contained 100 mM potassium phosphate buffer pH 7.5, 0.1 mg/mL^−1 catalase, 10 μL DMSO, 1 μL of a 20 mM stock solution of substrate and were initiated by addition of 20 μM wild type Clz9 or Tcz9 or their respective variants, unless otherwise altered to investigate the thermal and solvent effects on enzyme activity or product stability during time course experiments. Assays were allowed to incubate for 12 hat 37° C. before quenching with 150 μL acetonitrile. Assays were then centrifuged at 14000×g for 30 minutes and passed through a […] filter before injecting 50 μL of the solution for LC-MS analysis at a flow rate of 0.75 mL/min with a mobile phase combination of water+0.1% formic acid (A) and acetonitrile+0.1% formic acid (B) using a gradient as follows: 50% (B), 0 to 2 minutes; 50 to 100% (B), 2 to 10 min; 100% (B), 10 to 17 min; 100% to 50% (B), 17 to 18 min; 50% (B), 18 to 20 minutes.
# Clz9 = test: In vitro assays with Clz9 wild type and variants; type: biochemical, Streptomyces sp. CNH-287; settings: 12 hours, 37° C., pH 7.5
# Procedure: as §1
# [1] = room temperature
# Tcz9 T405Y = type: cell-based, Actinomycete sp. AJS-327; settings: I mM substrate, IL culture, 48 hours
# [2] = tested on: daurichromenic acid (DCA) synthase; settings: cited from earlier work
Compound,activity with Tcz9 T124F (Tcz9),activity with the Tcz9 enzymes (wild type and three variants) (Tcz9),activity with the Clz9 enzymes (wild type and three variants) (Clz9),stability in aqueous solutions [1],other results
"CC(C)=CCC/C(C)=C/CC/C(C)=C/Cc1c(O)cc(C)c(C(=O)O)c1O [compound 19, grifolic acid]",completely abolished activity,three of the four Tcz9 enzymes fully consumed,no activity,,
O=C1C=C2C(=C(O)/C1=c1\ccc3cc(Cl)c(Cl)n13)C(=O)n1c2cc(Cl)c1Cl [compound 6],,,,unexpectedly stable,
"CC(C)=CCC/C(C)=C/Cc1c(O)cc(C)c(C(=O)O)c1O [compound 12c, cannabigerorcinic acid]",,slightly different activity profile than 12b and 12a,slightly different activity profile than 12b and 12a,,
O=C1C=C2C(=C(O)/C1=c1/ccc3cc(Cl)c(Cl)n13)C(=O)n1c2cc(Cl)c1Cl [compound 7],,,,unexpectedly stable,
"CCCCCc1cc(O)c(C/C=C(\C)CCC=C(C)C)c(O)c1C(=O)O [compound 12a, cannabigerolic acid]",abolished activity,,,,conversion of substrate to products 15a and 17a (Tcz9 T405Y): approximately 80%; activity with DCA synthase [2]: no activity; activity with wild type Tcz9 (Tcz9; 5 mol %): showed activity; activity with Tcz9 E368N (Tcz9): consumed all; activity with Tcz9 T405Y (Tcz9): increased conversion; activity with wild type Clz9 (Clz9; 5 mol %): showed activity; activity with Clz9 F156T (Clz9): nearly consumed all; activity with Clz9 T438Y (Clz9): increased conversion
